“Also recorded” adds a separate entry of the source. Oligonucleotides are written 5' to 3', each unit as a sugar letter and its base; * is a phosphorothioate linkage, no mark a phosphodiester; rarer units and linkages stand in square brackets, end groups in braces. Plain capitals give the bases only. d = 2'-deoxy (DNA)
Experiments:
Type in all cases: cell-based, human
[1] = test system: TC620 cells; assay: TUNEL assay in TC620 cells
Protocol: To confirm the results of the PARP data that survivin down-regulation induced apoptosis, a TUNEL assay was performed. The TUNEL reaction preferentially labels cleaved genomic DNA generated during apoptosis, by the addition of fluorescein dUTP at strand breaks. The TUNEL assay was performed on lipofectin, mismatch oligonucleotide 1132, and survivin antisense oligonucleotide-treated TC620 cells. The percentages of TUNEL-positive cells treated with survivin antisense oligonucleotides 904 or 906 at 400 nM concentration were 52% and 54%, respectively. At 600 nM, 63% of survivin antisense oligonucleotide 904- and 906-treated TC620 cells were TUNEL-positive. Only 4% of the cells were TUNEL-positive in the presence of lipofectin or mismatch oligonucleotide 1132.
The TUNEL assay was performed to assess apoptotic cell death in survivin antisense oligonucleotide-treated TC620 cells using the In Situ Cell Death Detection Kit, Fluorescein (Roche Molecular Biochemicals, Indianapolis, Ind.). The TUNEL reaction preferentially labels cleaved genomic DNA generated during apoptosis, by the addition of fluorescein dUTP at strand breaks. Lipofectin, mismatch oligonucleotide 1132 or survivin antisense oligonucleotide-treated TC620 cells were fixed and permeabilized as described for PI staining. Cells were washed and incubated in the TUNEL reaction mixture, prepared according to the manufacture's recommendations, for 1 h at 37° C. Omission of the terminal deoxynucleotidyl transferase in the label solution served as a negative control for the TUNEL fluorescence staining. Cells were washed twice and counterstained with the DNA specific dye DAPI (1:1000 of a 1 mg/ml stock; 15 min at room temperature). Cells were examined with an Olympus 1×70 inverted microscope. For each treatment 15 random, 40×objective fields consisting of about 1000 cells were examined in duplicate chamber slides. TUNEL-positive nuclei were expressed as a percent of the total number of cells per individual field.

[2] = test system: TC620 cells; assay: Trypan blue assay (cell death) in TC620 cells
Protocol: At 100 nM, 200 nM, and 400 nM, the percentage of dead cells was 28%, 36%, and 62%, respectively. The percentages of Trypan blue-positive cells treated with 200 nM (8%) and 400 nM (7.5%) mismatched oligonucleotide 1132 were similar to the lipofectin control (6%). Cells were treated with lipofectin, survivin antisense oligonucleotide 904 at 100, 200, or 400 nM, or mismatched oligonucleotide 1132 at 200 nM or 400 nM concentrations. Cells were harvested 48 hours after the treatment and stained with 0.04% Trypan blue as described for FIG. 4.
To further examine whether cell death induced by treatment of TC620 cells with survivin antisense oligonucleotides occurs via a caspase-dependent mechanism, another experiment was performed to investigate the effect of a caspase inhibitor on cell death. […] TC620 cells were treated with lipofectin or 600 nM survivin antisense oligonucleotide 904, 906, or mismatch oligonucleotide 1132 alone, or co-treated with 20 μM zVAD-fmk.
(§1) Cells were harvested 48 hours after survivin antisense treatment, stained with 0.04% Trypan blue (GIBCO), and counted on a hemocytometer. The number of Trypan blue positive cells relative to the total number of cells in each field was obtained and the data were expressed as a percentage of dead cells relative to the total cell number. Individual experiments were performed in triplicate. MSN cell studies were performed three times, while studies in TC620 cells were performed once.

[3] = test system: MSN cells; assay: Trypan blue assay (cell death) in MSN cells; conditions: for percentage of cells Trypan blue positive: MSN cells
Protocol: The role of survivin as an inhibitor of apoptosis and as a survival protein for tumors was investigated by examining whether the down-regulation of survivin was sufficient to induce cell death in MSN cells. Following transfection with lipofectin, different concentrations of survivin antisense oligonucleotide 904 (200 nM, 400 nM, 600 nM), or the mismatched oligonucleotide 1132 (400 nM and 600 nM), the number of Trypan blue positive cells (only dead cells are stained by the Trypan blue stain) were counted 48 hours after treatment. The number of dead cells was assessed relative to the lipofectin-treated control cells. In the presence of 200 nM, 400 nM, and 600 nM concentrations of antisense oligonucleotide 904, the percentage of cells that were Trypan blue positive were 52%, 59% and 62%, respectively (FIG. 4A). The mismatched oligonucleotide 1132 (400 nM and 600 nM) was similar to the lipofectin control treatment, wherein 23% (400 nM) and 22% (600 nM) of the cells were Trypan blue-positive. About 6% of the cells in the untreated control were Trypan blue positive.
In another experiment, following transfection with lipofectin, mismatched oligonucleotide 1132 (600 nM), or survivin antisense oligonucleotide 904 or 906 (600 nM), the numbers of Trypan blue positive cells (dead cells) were counted 48 h post-treatment. In the presence of 600 nM survivin antisense oligonucleotide 904 and 906, the percentages of cells that were Trypan blue positive were 73% and 81%, respectively (FIG. 4B). Upon treatment with lipofectin or the mismatched oligonucleotide 1132, only 7-11% of the cells were Trypan blue positive.
Further experiments were conducted to examine whether survivin antisense oligonucleotide-induced cell death could be blocked by the broad-spectrum caspase inhibitor zVAD-fmk. MSN cells were treated with lipofectin or 600 nM survivin antisense oligonucleotide 904, 906, or mismatch oligonucleotide 1132 alone, or co-treated with 20 μM zVAD-fmk for 48 h, and stained with 0.04% Trypan blue.
as §1

[4] = test system: TC620 cells; assay: Propidium iodide staining, nuclear morphology of TC620 cells; conditions: for nuclear morphology by PI staining: 600 nM (FIG. 7); for number of cells in metaphase, with zVAD-fmk compared with oligonucleotide alone: 600 nM plus zVAD-fmk (FIG. 8B)
Protocol: Propidium iodide (PI) staining was performed to investigate changes in nuclear morphology caused by treatment of TC620 cells with survivin antisense oligonucleotides. […] TC620 cells were treated with lipofectin (FIG. 7A), or 600 nM mismatch oligonucleotide 1132 (FIG. 7B), survivin antisense oligonucleotide 904 (FIGS. 7C and 7E), or 906 (FIG. 7D), and stained with PI. Quantification results for TC620 cells treated with 600 nM survivin antisense oligonucleotide 904, 906, or mismatch oligonucleotide 1132, alone or in the presence of zVAD-fmk, are shown in FIGS. 8A-B. Cells in metaphase were identified as those with chromosomes aligned on the metaphase plate.
Survivin antisense oligonucleotide-treated cells were fixed with 4% paraformaldehyde for 30 min at room temperature, washed with 1×TBS, permeabilized with 0.1% Triton X-100 for 30 min and treated with 10 μg/ml DNasc free RNase A (Sigma) for 60 min. Nuclei were stained with 200 μg /ml PI for 30 min at 4° C. and washed twice with 1×TBS. Nuclear morphology was assessed on an inverted Olympus 1×70 fluorescence microscope equipped with phase and epifluorescence optics. For each treatment about 600 nuclei were scored as normal, condensed (apoptotic), or abnormal (macronuclei, multilobed) on 15 random, 40×objective fields in duplicate. Quantification results are mean±SEM obtained from two independent experiments performed in duplicate.

[5] = 600 nM co-treated with 20 μM zVAD-fmk (FIG. 6B)
[6] = 600 nM co-treated with 20 μM zVAD-fmk, 48 h (FIG. 4B)

Substance	percentage of TUNEL-positive cells ([1]; concentration not given)	percentage of dead (Trypan blue-positive) cells ([2]; 200 nM, 48 hours (FIG. 6A))	percentage of dead (Trypan blue-positive) cells ([2]; 400 nM, 48 hours (FIG. 6A))	percentage of cells Trypan blue positive ([3]; 400 nM, 48 hours (FIG. 4A))	percentage of cells Trypan blue positive ([3]; 600 nM alone, 48 h (FIG. 4B))	percentage of cells Trypan blue positive ([3]; 600 nM, 48 hours (FIG. 4A))	nuclear morphology by PI staining [4]	percentage of apoptotic cells (chromatin fragmentation, apoptotic bodies) by PI staining ([4]; 600 nM (FIG. 8A))	percentage of cells with abnormal (multiple multilobed) nuclei by PI staining ([4]; 600 nM (FIG. 8A))	number of cells in metaphase, with zVAD-fmk compared with oligonucleotide alone [4]	percentage of TUNEL-positive cells ([1]; 400 nM)	percentage of TUNEL-positive cells ([1]; 600 nM)	percentage of Trypan blue positive cells ([2]; 600 nM alone (FIG. 6B))	percentage of Trypan blue positive cells [2, 5]	percentage of cells Trypan blue positive [3, 6]	percentage of dead (Trypan blue-positive) cells ([2]; 100 nM, 48 hours (FIG. 6A))	cell death, Trypan blue positive cells ([2]; 48 hours (FIG. 6A))	cell death, Trypan blue positive cells ([3]; MSN cells (FIG. 4A))	percentage of cells Trypan blue positive ([3]; 200 nM, 48 hours (FIG. 4A))
d(GCACCTAGTCTCCCTGCACC) (DNA, all phosphorothioate, methylation of C not given here) [Oligo 1132, mismatched phosphorothioate control oligonucleotide, not complementary to survivin mRNA, reference compound]	4%	8%	7.5%	23%	7-11%	22%	normal nuclear morphology	2%	1%	did not affect the number of cells in metaphase									
d(GCTTCCCAGTCACATCCTGT) (antisense dG*dC*dT*dT*dC*dC*dC*dA*dG*dT*dC*dA*dC*dA*dT*dC*dC*dT*dG*dT) [Oligo 906, 20-mer phosphorothioate survivin antisense oligonucleotide, complementary to survivin mRNA 11897-11916]					81%		abnormal macronuclei that are multilobed			approximate two-fold increase	54%	63%	67%	15%	74%				
d(TCTTGGCTCTTTCTCTGTCC) (antisense dT*dC*dT*dT*dG*dG*dC*dT*dC*dT*dT*dT*dC*dT*dC*dT*dG*dT*dC*dC) [Oligo 904, 20-mer phosphorothioate survivin antisense oligonucleotide, complementary to survivin mRNA 5248-5267]		36%	62%	59%	73%	62%	apoptotic nuclei; also recorded: abnormal macronuclei that are multilobed			approximate two-fold increase	52%	63%	70%	11%	73%	28%	concentration-dependent increase in Trypan blue-positive (dead) cells; also recorded: dose-dependent increase in cell death	dose-dependent increase in cell death	52%

From patent publication US20030125287A1, “Antisense oligonucleotides and methods to induce tumor cell death” (Hybridon, Inc., priority 2001, published 2003)
